Test results published in ChEMBL document CHEMBL4004877, “Synthesis and biological evaluation of chalcone, dihydrochalcone, and 1,3-diarylpropane analogs as anti-inflammatory agents” (Bioorg Med Chem Lett, 2017).
≈ marks a conversion by molar mass, not a printed value.

Legend:
RAW264.7 [1] = assay: Antiinflammatory activity in mouse RAW264.7 cells assessed as inhibition of LPS induced iNOS-dependent nitric oxide production at 10 ug/ml after 24 hrs by Griess assay relative to control; format: functional; details: RAW264.7, 24 h
[2] = Cytotoxicity against LPS-stimulated mouse RAW264.7 cells assessed as cell viability at 2.5 ug/ml after 24 hrs by MTT assay relative to control; format: cell-based; details: LPS-stimulated RAW264.7 cells, read-out: Activity
RAW264.7 [3] = assay: Antiinflammatory activity in mouse RAW264.7 cells assessed as inhibition of LPS induced iNOS-dependent nitric oxide production at 2.5 ug/ml after 24 hrs by Griess assay relative to control; format: functional; details: RAW264.7, 24 h
[4] = Cytotoxicity against LPS-stimulated mouse RAW264.7 cells assessed as cell viability at 10 ug/ml after 24 hrs by MTT assay relative to control; format: cell-based; details: LPS-stimulated RAW264.7 cells, read-out: Activity
[5] = Cytotoxicity against LPS-stimulated mouse RAW264.7 cells assessed as cell viability at 1.25 ug/ml after 24 hrs by MTT assay relative to control; format: cell-based; details: LPS-stimulated RAW264.7 cells, read-out: Activity
RAW264.7 [6] = assay: Antiinflammatory activity in mouse RAW264.7 cells assessed as inhibition of LPS induced iNOS-dependent nitric oxide production at 5 ug/ml after 24 hrs by Griess assay relative to control; format: functional; details: RAW264.7, 24 h
RAW264.7 [7] = assay: Antiinflammatory activity in mouse RAW264.7 cells assessed as inhibition of LPS induced iNOS-dependent nitric oxide production after 24 hrs by Griess assay; format: functional, cell-based; details: RAW264.7, 24 h
[8] = Cytotoxicity against LPS-stimulated mouse RAW264.7 cells assessed as cell viability at 5 ug/ml after 24 hrs by MTT assay relative to control; format: cell-based; details: LPS-stimulated RAW264.7 cells, read-out: Activity
RAW264.7 [9] = assay: Antiinflammatory activity in mouse RAW264.7 cells assessed as inhibition of LPS induced iNOS-dependent nitric oxide production at 1.25 ug/ml after 24 hrs by Griess assay relative to control; format: functional; details: RAW264.7, 24 h

Row | SMILES | IC50 (RAW264.7 [7]) | inhibition at 10 µg/mL (RAW264.7 [1]) | viability at 24 h, 2.5 ug/ml [2] | inhibition at 2.5 µg/mL (RAW264.7 [3]) | viability at 24 h, 10 ug/ml [4] | viability at 24 h, 1.25 ug/ml [5] | inhibition at 5 µg/mL (RAW264.7 [6]) | viability at 24 h, 5 ug/ml [8] | inhibition at 1.25 µg/mL (RAW264.7 [9])
1 | COc1ccc(C(=O)CCc2cc(OC)ccc2OC)c(O)c1 | > 10 µg/mL | 14% | 96.2% | 8.2% | 92.4% | 96.4% | 11.9% | 91.1% | 6.6%
2 | COc1ccc(C(=O)/C=C/c2ccc(OC)c(OC)c2)c(O)c1 | 5.05 µg/mL (≈ 16.1 µM) | 77.3% | 92.6% | 3% | 70% | 99.7% | 49.6% | 73.9% | 9.1%
3 | COc1ccc(/C=C/C(=O)c2ccc(O)c(OC)c2)cc1 | 4.88 µg/mL (≈ 17.2 µM) | 53.9% | 96% | 3.1% | 62.3% | 96.2% | 51.7% | 82.9% | 7.7%
4 | COc1ccc(OC)c(/C=C/C(=O)c2cccc(O)c2)c1 | 2.42 µg/mL (≈ 8.51 µM) | 77.1% | 72.4% | 52.3% | 62.5% | 99% | 52.4% | 67.3% | 2.8%
5 | COc1cc(C(=O)/C=C/c2cccc(OC)c2OC)ccc1O | > 10 µg/mL | 46.2% | 94% | 3.1% | 63.7% | 97.5% | 3.2% | 67.8% | 3.9%
6 | COc1ccc(C(=O)CCc2ccc(OC)c(OC)c2)c(O)c1 | 7.86 µg/mL (≈ 24.8 µM) | 56.2% | 89% | 23.9% | 67.5% | 91.8% | 38.3% | 75.2% | 18.4%
7 | COc1ccc(CCC(=O)c2ccc(OC)c(OC)c2)cc1 | 4.35 µg/mL (≈ 14.5 µM) | 57.2% | 98.6% | 32.5% | 90.6% | 99.1% | 54.4% | 95.1% | 14.1%
8 | COc1ccc(/C=C/C(=O)c2ccc(OC)c(OC)c2)cc1 | 2.43 µg/mL (≈ 8.15 µM) | 85.5% | 93.1% | 52% | 73.9% | 97.2% | 52.1% | 78.9% | 5.1%
9 | COc1ccc(C(=O)CCc2cccc(OC)c2OC)c(O)c1 | > 10 µg/mL | 18.6% | 95.2% | 2.8% | 92.8% | 96.6% | 5.4% | 92.7% | 0.8%
10 | COc1ccc(OC)c(CCC(=O)c2cccc(O)c2)c1 | > 10 µg/mL | 38.5% | 96.8% | 18.4% | 93.6% | 98.6% | 22.3% | 97.5% | 15.7%

The next lines start with results.

Row | IC50 (RAW264.7 [7]) | SMILES | inhibition at 10 µg/mL (RAW264.7 [1]) | viability at 24 h, 2.5 ug/ml [2] | inhibition at 2.5 µg/mL (RAW264.7 [3]) | viability at 24 h, 10 ug/ml [4] | viability at 24 h, 1.25 ug/ml [5] | inhibition at 5 µg/mL (RAW264.7 [6]) | viability at 24 h, 5 ug/ml [8] | inhibition at 1.25 µg/mL (RAW264.7 [9])
11 | 8.79 µg/mL (≈ 29.1 µM) | COc1ccc(CCCc2cccc(OC)c2OC)c(O)c1 | 54.4% | 99% | 30.3% | 63% | 99.1% | 30.7% | 95.2% | 21.5%
12 | > 10 µg/mL | COc1ccc(CCCc2ccc3c(c2)OCO3)c(OC)c1 | 44.6% | 97.7% | 20.1% | 94.7% | 99.1% | 28% | 97.2% | 16.9%
13 | 5.18 µg/mL (≈ 20.2 µM) | Oc1ccc(CCCc2ccc3c(c2)OCO3)cc1 | 69.4% | 95.7% | 37.7% | 92.6% | 99.2% | 48.9% | 94.5% | 33%
14 | 3.64 µg/mL (≈ 12.7 µM) | COc1cc(CCCc2ccc3c(c2)OCO3)ccc1O | 78.3% | 96.2% | 46.8% | 58.2% | 98.5% | 52.7% | 93.3% | 42.4%
15 | 5.08 µg/mL (≈ 18.7 µM) | COc1ccc(CCCc2ccc(O)c(OC)c2)cc1 | 89.8% | 97.8% | 42.9% | 66.3% | 99.2% | 49% | 96.4% | 35.9%
16 | 9.47 µg/mL (≈ 29.9 µM) | COc1ccc(CCCc2ccc(OC)c(OC)c2)cc1OC | 52% | 97.4% | 12.7% | 94.9% | 99% | 26.1% | 95.6% | 8.4%
17 | 2.57 µg/mL (≈ 8.5 µM) | COc1cc(CCCc2cccc(OC)c2OC)ccc1O | 89.4% | 97.8% | 49.5% | 68.9% | 99.6% | 60.7% | 97% | 43.3%
18 | 6.3 µg/mL (≈ 21.1 µM) | COc1cc(C(=O)/C=C/c2ccc3c(c2)OCO3)ccc1O | 51.8% | 85.3% | 0.6% | 72.7% | 100% | 49.1% | 81.1% | 5.3%
19 | 1.25 µg/mL (≈ 4.19 µM) | COc1ccc(C(=O)/C=C/c2ccc3c(c2)OCO3)c(O)c1 | 8.6% | 91.7% | 5.7% | 72% | 96.4% | 3% | 75.2% | 50.2%
20 | 3.92 µg/mL (≈ 13 µM) | COc1ccc(CCCc2ccc(OC)c(OC)c2)cc1O | 83.6% | 95.5% | 36.3% | 51.9% | 98% | 57.4% | 86.2% | 32.4%
21 | 8.09 µg/mL (≈ 29.7 µM) | COc1cccc(CCCc2cccc(O)c2)c1OC | 63.9% | 97.4% | 18.4% | 69.6% | 97.1% | 18.3% | 96.1% | 16.3%
22 | > 10 µg/mL | COc1ccc(C(=O)CCc2ccc3c(c2)OCO3)c(OC)c1 | 9.8% | 87.2% | 4.5% | 81% | 87.4% | 6.6% | 83.2% | 0.2%
23 | 4.12 µg/mL (≈ 14.4 µM) | COc1ccc(CCCc2ccc3c(c2)OCO3)c(O)c1 | 85.9% | 95.3% | 39.4% | 15.6% | 97.5% | 54.1% | 71.4% | 32.6%
